Earlier results, collected in patent US20070281927A1, “Anti-inflammatory and analgesic compositions and related methods” (priority 2006, published 2007).

Columns and labels:
[1] = not given; remark: listed apart in the source

Cc1cnc(NC(=O)C2=C(O)c3ccccc3S(=O)(=O)N2C)s1 [Meloxicam, 4-hydroxy-2-methyl-N-(5-methyl-2-thiazolyl-)-2H-1,2-benzothiazine-3-carboxamide 1,1-dioxide]
time to maximum plasma concentration (after oral administration, many individuals): ≥ 5 h | time of second meloxicam concentration peak (post-dose, suggests gastrointestinal recirculation): twelve to fourteen | bioavailability (single 30 mg oral dose compared to 30 mg intravenous bolus injection): 89% | solubility in acidic or neutral mediums ([1]; acidic or neutral mediums): low solubility | solubility at the acidic pH range of the upper gastrointestinal tract ([1]; acidic pH range of the upper gastrointestinal tract): poorly soluble | solubility in water ([1]; water): practically insoluble
